Experimental data: the NIST ThermoML archive (doi:10.1021/je7007654)

Assay: xn = mol fraction of the nth substance listed
Conditions: 101 kPa, Liquid; for viscosity: Capillary tube (Ostwald / Ubbelohde) method; for speed of sound: Sing-around technique in a fixed-path interferometer

CC(C)CCCC(C)CCCC(C)CCCCC(C)CCCC(C)CCCC(C)C (stereo not given) [2,6,10,15,19,23-hexamethyltetracosane] + CCCCO
Conditions	speed of sound, 298.15 K [m/s]	speed of sound, 303.15 K [m/s]	speed of sound, 308.15 K [m/s]	viscosity, 298.15 K [mPa·s]	viscosity, 303.15 K [mPa·s]	viscosity, 308.15 K [mPa·s]
x2 = 0	1381.9	1364.1	1346.5	28.26	22.09	17.77
x2 = 0.0451	1379.5	1361.7	1343	26.66	20.88	16.81
x2 = 0.1077	1376.1	1358.3	1340.2	24.69	19.42	15.62
x2 = 0.1346	1374.8	1356.5	1338.9	23.92	18.86	15.16
x2 = 0.1888	1371.7	1353.8	1335.9	22.48	17.78	14.29
x2 = 0.2231	1369.7	1351.8	1333.9	21.62	17.14	13.79
x2 = 0.3059	1365.1	1347.1	1329.3	19.67	15.64	12.62
x2 = 0.4052	1358.8	1340.8	1322.8	17.39	13.9	11.38
x2 = 0.5039	1350.9	1332.6	1314.8	15.11	12.14	9.903
x2 = 0.6118	1340.5	1322.5	1304.6	12.47	10.12	8.307
x2 = 0.7056	1328.8	1310.9	1293.1	10.06	8.276	6.824
x2 = 0.7998	1312.5	1294.8	1277.1	7.573	6.348	5.267
x2 = 0.8546	1299.5	1281.8	1264.2	6.128	5.2	4.344
x2 = 0.9035	1284.3	1266.8	1249.1	4.873	4.186	3.527
x2 = 0.9669	1258.5	1241.4	1224.4	3.325	2.912	2.497

mass density [kg/m3], Vibrating tube method
Conditions	298.15 K	303.15 K	308.15 K
x2 = 0	805.122	801.912	798.709
x2 = 0.0451	804.881	801.658	798.397
x2 = 0.1077	804.649	801.402	798.084
x2 = 0.1346	804.573	801.318	797.991
x2 = 0.1888	804.447	801.16	797.826
x2 = 0.2231	804.377	801.07	797.731
x2 = 0.3059	804.273	800.898	797.543
x2 = 0.4052	804.097	800.714	797.32
x2 = 0.5039	803.949	800.528	797.098
x2 = 0.6118	803.817	800.347	796.857
x2 = 0.7056	803.732	800.179	796.621
x2 = 0.7998	803.836	800.194	796.558
x2 = 0.8546	803.989	800.335	796.66
x2 = 0.9035	804.336	800.708	796.979
x2 = 0.9669	805.126	801.896	798.06

CCCCCCCCCCCCCCCC [hexadecane] + CCCCO
Conditions	mass density, 298.15 K [kg/m3]	mass density, 303.15 K [kg/m3]	mass density, 308.15 K [kg/m3]	speed of sound, 298.15 K [m/s]	speed of sound, 303.15 K [m/s]	speed of sound, 308.15 K [m/s]	viscosity, 298.15 K [mPa·s]	viscosity, 303.15 K [mPa·s]	viscosity, 308.15 K [mPa·s]
x2 = 0	770.456	766.981	763.52	1338.6	1320	1301.7	3.041	2.706	2.409
x2 = 0.0899	770.953	767.402	763.863	1332.4	1313.4	1294.9	2.957	2.6	2.302
x2 = 0.1048	771.053	767.499	763.961	1331.2	1312.2	1293.8	2.937	2.582	2.287
x2 = 0.1516	771.517	767.916	764.36	1328.2	1309.2	1290.3	2.899	2.546	2.254
x2 = 0.2017	772.074	768.482	764.874	1324.9	1305.8	1287.3	2.846	2.515	2.223
x2 = 0.2494	772.705	769.093	765.462	1321.9	1302.9	1284.4	2.811	2.478	2.189
x2 = 0.3382	774.083	770.439	766.796	1315.8	1296.9	1278.2	2.753	2.432	2.146
x2 = 0.4147	775.524	771.883	768.201	1310.6	1291.6	1273.1	2.704	2.394	2.112
x2 = 0.5057	777.651	773.952	770.24	1303.9	1285.5	1266.9	2.665	2.344	2.068
x2 = 0.5845	779.95	776.223	772.472	1297.6	1279.2	1260.9	2.635	2.306	2.029
x2 = 0.698	784.249	780.452	776.653	1287.4	1269.2	1251.1	2.594	2.256	1.99
x2 = 0.7945	789.246	785.434	781.597	1276.8	1258.5	1240.6	2.568	2.223	1.96
x2 = 0.8497	792.847	789.093	785.172	1269.5	1251.4	1233.7	2.558	2.218	1.953
x2 = 0.8963	796.346	792.717	788.76	1262.7	1244.8	1227.4	2.551	2.219	1.948
x2 = 0.953	801.232	797.973	794.054	1252.3	1235.8	1218.5	2.556	2.228	1.953
